Results from patent publication US7691818B2, “Peptidomimetic inhibitors of retroviral proteases and their use as antivirals” (Universita' Degli Studi Di Treiste, priority 2004, dated 2010).

Biological target: HIV-1 recombinant protease (Human immunodeficiency virus type 1 group M subtype B, UniProt P04585)
Experiment: biochemical
Method: Inhibitory activity was measured in accordance with the method described by A. Tossi et al. (Eur. J. Biochem., 2000, 267, 1715) using an HIV-1 recombinant protease supplied by Bioczech (Prague, CZ) and the fluorogenic substrate Abz-Thr-Ile-Nle-Phe(p-NO2)-Gln-Arg-NH2 (abbreviated hereinafter as Abz-NF*-6) supplied by Bachem (Bubendorf, CH). Specifically, 189 μL of a 30 μM solution of Abz-NF*-6 in a 100 mM MES-NaOH buffer (pH 5.5) containing NaCl (400 mM), EDTA (1 mM), DTT (1 mM) and BSA (1 mg/mL) are incubated at 25° C. in a cuvette placed directly in the spectrofluorimeter, irradiated at 325 mn and checking that there is no increase of emission at 420 nm due to the spontaneous hydrolysis of the substrate. After 1.5 minutes 11 μL of a standard solution of HIV-PR (0.4 mg/mL) in the same buffer are added and the variation in fluorescence, due to catalysed hydrolysis of the Abz-NF*-6 substrate, is recorded for 1 minute. 2 μL of the inhibitor solution in DMSO or MES buffer are then added and the variation in fluorescence over time due to hydrolysis of the Abz-NF*-6 substrate in the presence of the specific inhibitor is recorded.

`CCC(C)C(NC(=O)C(NC(C)=O)C(C)C)C(=O)N1CCC[C@H]1[C@H](O)[C@@H](O)[C@H](Cc1ccccc1)NC(=O)C(CC(N)=O)NC(=O)C(CC(C)C)NC(=O)C(CO)NC(C)=O` (stereo partly drawn) [(21), NH-Ac-Ser-Leu-Asn-Phe-[φ]-Pro-Ile-Val-NH-Ac] was tested, and the IC50 was 0.61 nM.

Compound `CC(=O)N[C@@H](Cc1c[nH]c2ccccc12)C(=O)N[C@H](C(=O)N[C@@H](Cc1ccccc1)[C@H](O)[C@@H](O)[C@@H]1CCCN1C(=O)[C@@H](NC(=O)[C@H](Cc1c[nH]c2ccccc12)NC(C)=O)C(C)C)C(C)C` [(22), NH-Ac-Trp-Val-Phe-[φ]-Pro-Val-Trp-NH-Ac] has an IC50 of 0.06 nM.

`Cc1cccc(C)c1OCC(=O)N[C@@H](Cc1ccccc1)[C@H](O)[C@@H](O)[C@@H]1CCCN1C(=O)COc1c(C)cccc1C` [(23), DmPoa-Phe-[φ]-Pro-DmPoa] gave an IC50 of 9.6 nM.

Compound `CC(=O)NC(Cc1c[nH]c2ccccc12)C(=O)NC(C(=O)N1CCC[C@H]1[C@H](O)[C@@H](O)[C@H](Cc1ccccc1)NC(=O)COc1c(C)cccc1C)C(C)C` (stereo partly drawn) [(24), DmPoa-Phe-[φ]-Pro-Val-Trp-NH-Ac] has an IC50 of 75.3 nM.

With `Cc1cccc(C)c1OCC(=O)N[C@@H](Cc1ccccc1)[C@H](O)[C@@H](O)[C@@H]1CCCN1C(=O)COc1ccccc1` [(25), DmPoa-Phe-[φ]-Pro-Poa] the IC50 was 84.7 nM.
